Results: patent US9956176B2, “Compositions and methods for treating ewing sarcoma” (priority 2014, dated 2018)
d = 2'-deoxy (DNA); m = 2'-O-methyl

What was measured:
[1] = tested on: human Acute Lymphoblastic Leukemia (REH cells); test: REH-Luc leukemia xenograft, tumor burden by Xenogen camera; assay type: in vivo, mouse
From the text: (§1) To complete the mouse efficacy and safety studies we injected NOG mice with 6×10^6 luciferase transfected human Acute Lymphoblastic Leukemia (REH cells). This special transgenic type of mouse has deletions in the gene encoding the interleukin 2 receptor γ (IL2Rγ) and has added genes expressing human iL3, GM-CSF and SCF. To prevent rejection of injected human leukemia cells, the NOG mice have a complete lack of B, T, and NK cells, and a deficiency of cytokine signaling. The mice were separated into six groups. Group 1 received only buffer treatment; group 2-untargeted, unloaded HPLN; group 3-untargeted, HPLN/Dox (2 mg Dox/kg); group 4-(targeted) anti-CD-19/HPLN/Dox (2 mg Dox/kg); group 5-Doxil (2 mg Dox/kg); and group 6-(free) doxorubicin (2 mg Dox/kg).
(§2) Upon injection of the leukemia cells, Xenogen camera images were done once per week and used to assess both tumor cell distribution and quantitative tumor burden. After 10 days post leukemia cell injection, our targeted nanoparticle drug (anti-CD-19/HPLN/Dox) or control particles or drugs, were administered to the mice, in once a week dosages. The amount of drug given was based on the active substance (doxorubicin), not on total nanoparticle mass in each formulation (except for group 2, these mice received an equivalent HPLN dose in unloaded form). […]

[2] = assay type: in vivo; conditions: once a week IV
From the text: as §1, §2

RNA polymerase II = molecular target: T1, RNA polymerase II (Homo sapiens, UniProt P24928); test: inhibition of FEZF1-AS1 transcription; assay type: cell-based
T1 construct: endogenous in cells; host or cells: Ewing sarcoma cells
From the text: FEZF1-AS1 is located on human chromosome 7q31.32 on the positive strand and overlaps the first two exons of protein-coding gene, FEZF1, which lies on the opposite strand. To characterize this gene in Ewing sarcoma, we performed Northern blot analysis using different biotin-labelled probes that confirmed the 2.6 kb transcript was predominantly expressed in Ewing sarcoma. […] RNA-sequencing of two Ewing sarcoma cell lines, CHLA-9 and CHLA-10, identified multiple isoforms of the transcript, some of which included introns and/or extended beyond exon 7. CHLA-9 and CHLA-10 are Ewing sarcoma cell lines from the same patient. CHLA-9 is from the primary tumor and CHLA-10 is from the metastatic tumor. We validated some of the isoforms by PCR and Sanger sequencing. To confirm the annotation of FEZF1-AS1 as a non-coding RNA, we used the coding potential calculator algorithm that assigned a low score of −1.2 compared to scores of 5 and above for coding genes such as FLI1, and NR0B1. FEZF1-AS1 transcription was inhibited by alpha-amanitin but not by RNA Polymerase III inhibitor, thus confirming that RNA polymerase II transcribes the lncRNA. […] Thus, lncRNA FEZF1-AS1 is a highly expressed gene is Ewing sarcoma.

FEZF1-AS1 = FEZF1-AS1 expression in A673 cells; assay type: cell-based, human

## COc1cccc2c1C(=O)c1c(O)c3c(c(O)c1C2=O)C[C@@](O)(C(=O)CO)C[C@@H]3O[C@H]1C[C@H](N)[C@H](O)[C@H](C)O1 [doxorubicin]
[1]; 2 mg Dox/kg once a week from day 10, IV, FIG. 4
  tumor growth / tumor reduction: significant tumor reduction
[1]; 2 mg Dox/kg, day 35, FIG. 8
  tumor size and burden: markedly less
[2]
  tolerability, acute toxic reactions: lose weight and appeared sickly

## alpha-amanitin
RNA polymerase II
  FEZF1-AS1 transcription: inhibited

## 5-mG*mU*mG*mU*mG*T*G*T*G*T*C*T*G*C*T*mU*mG*mU*mU*mU-3′ (antisense GUGUGTGTGTCTGCTUGUUU; sugars from the 5' end m5 d10 m5, all phosphorothioate, methylation of C not given here) [FA7]
FEZF1-AS1; A673, 48 hours
  knockdown levels: about 50%
FEZF1-AS1; A673, nucleofection, 24 hours
  FEZF1-AS1 levels reduced to: 80%
